{"source": "patent US20220220128A1", "about": "“HETEROCYCLIC COMPOUNDS AS KINASE INHIBITORS, COMPOSITIONS COMPRISING THE HETEROCYCLIC COMPOUND, AND METHODS OF USE THEREOF” (JS Innopharm (Shanghai) Ltd, priority 2019, published 2022)", "key": {"human RET kinase": {"target": "T1, human RET kinase (Homo sapiens, UniProt P07949)", "T1 construct": "purchased Carna 08-159", "T1 sequence (P07949 29-1114)": "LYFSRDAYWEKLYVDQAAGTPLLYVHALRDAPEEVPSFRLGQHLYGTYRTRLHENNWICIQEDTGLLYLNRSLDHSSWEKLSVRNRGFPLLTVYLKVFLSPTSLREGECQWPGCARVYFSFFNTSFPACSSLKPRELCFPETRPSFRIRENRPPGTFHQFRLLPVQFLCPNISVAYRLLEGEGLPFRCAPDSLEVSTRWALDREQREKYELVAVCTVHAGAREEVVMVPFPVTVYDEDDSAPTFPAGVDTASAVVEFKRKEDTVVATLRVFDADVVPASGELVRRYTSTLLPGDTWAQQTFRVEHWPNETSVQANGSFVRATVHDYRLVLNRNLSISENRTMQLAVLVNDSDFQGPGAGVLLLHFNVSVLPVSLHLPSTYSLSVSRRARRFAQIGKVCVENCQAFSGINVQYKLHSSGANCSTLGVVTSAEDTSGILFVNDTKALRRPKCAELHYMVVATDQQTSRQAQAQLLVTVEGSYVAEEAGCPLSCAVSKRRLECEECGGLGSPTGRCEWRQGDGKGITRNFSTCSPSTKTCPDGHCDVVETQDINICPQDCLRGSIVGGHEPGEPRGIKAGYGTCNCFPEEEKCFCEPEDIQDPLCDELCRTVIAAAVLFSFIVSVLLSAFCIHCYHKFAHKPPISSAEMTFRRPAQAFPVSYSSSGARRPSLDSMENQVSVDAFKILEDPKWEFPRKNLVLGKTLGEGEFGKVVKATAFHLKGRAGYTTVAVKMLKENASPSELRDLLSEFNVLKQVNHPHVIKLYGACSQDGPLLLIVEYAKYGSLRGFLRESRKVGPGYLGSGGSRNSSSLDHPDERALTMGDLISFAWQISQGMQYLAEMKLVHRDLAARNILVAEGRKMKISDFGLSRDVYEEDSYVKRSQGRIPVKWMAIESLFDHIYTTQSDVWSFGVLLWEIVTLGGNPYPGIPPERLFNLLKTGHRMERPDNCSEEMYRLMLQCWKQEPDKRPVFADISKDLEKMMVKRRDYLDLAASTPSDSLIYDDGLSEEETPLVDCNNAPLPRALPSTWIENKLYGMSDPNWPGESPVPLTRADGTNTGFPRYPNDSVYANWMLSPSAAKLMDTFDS", "assay": "RET Kinase Assay (LanthaScreen TR-FRET enzymatic assay)", "format": "biochemical", "settings": "7 nM RET, 23 μM ATP", "procedure": "Compounds were tested in a LanthaScreen™ time-resolved fluorescence energy transfer (TR-FRET) enzymatic assay from Invitrogen. The assay used human RET kinase (Carna 08-159). Test compounds were prepared and diluted in DMSO in 3-fold serial dilutions to 50× of the final testing concentrations. The compounds were then further diluted to 5× by the kinase reaction buffer (50 mM HEPES pH 7.5, 0.0015% Brij-35). The enzymatic reaction for compound testing was performed in a white 384-well polypropylene plate (Corning 3573) with a total reaction volume of 25 μl containing 7 nM RET, 3 μM peptide substrate FAM-P2 (GL Biochem 112394), and 23 μM ATP (Sigma A7699-1G). The assay started with loading RET diluted in kinase reaction buffer to wells, followed by addition of equal volume of 5× compounds for 15-min incubation at the room temperature for pre-treatment. The enzymatic reaction was initiated by addition of mixture of the substrate and ATP prepared in kinase reaction buffer. After incubation at 28° C. for one hour, 25 μl of stopper buffer (a mixture of 100 mM HEPES pH 7.5 buffer, 0.015% Brij-35, 50 mM EDTA and 0.2% of coating reagent 3 (Cliper Lifesciences)) and produce TR-FRET signals. After 30 minutes of incubation at room temperature, the plate was read in a Caliper with the following settings: Excitation 340 nm (30)/Emission1 495 nm (10)/Emission2 520 nm (25). The TR-FRET values were dimensionless numbers that were calculated as the ratio of the acceptor ([…]) signal to the donor (Terbium) signal. Percent of control was calculated as the percentage of compound-treated vs 1% DMSO vehicle-treated. The dose-response curves were generated and the IC50s were calculated by nonlinear sigmoid curve fitting using XLFit."}, "human KDR kinase": {"target": "T2, human KDR kinase (Homo sapiens, UniProt P35968)", "T2 construct": "purchased Carna 08-191", "T2 sequence (P35968 20-1356)": "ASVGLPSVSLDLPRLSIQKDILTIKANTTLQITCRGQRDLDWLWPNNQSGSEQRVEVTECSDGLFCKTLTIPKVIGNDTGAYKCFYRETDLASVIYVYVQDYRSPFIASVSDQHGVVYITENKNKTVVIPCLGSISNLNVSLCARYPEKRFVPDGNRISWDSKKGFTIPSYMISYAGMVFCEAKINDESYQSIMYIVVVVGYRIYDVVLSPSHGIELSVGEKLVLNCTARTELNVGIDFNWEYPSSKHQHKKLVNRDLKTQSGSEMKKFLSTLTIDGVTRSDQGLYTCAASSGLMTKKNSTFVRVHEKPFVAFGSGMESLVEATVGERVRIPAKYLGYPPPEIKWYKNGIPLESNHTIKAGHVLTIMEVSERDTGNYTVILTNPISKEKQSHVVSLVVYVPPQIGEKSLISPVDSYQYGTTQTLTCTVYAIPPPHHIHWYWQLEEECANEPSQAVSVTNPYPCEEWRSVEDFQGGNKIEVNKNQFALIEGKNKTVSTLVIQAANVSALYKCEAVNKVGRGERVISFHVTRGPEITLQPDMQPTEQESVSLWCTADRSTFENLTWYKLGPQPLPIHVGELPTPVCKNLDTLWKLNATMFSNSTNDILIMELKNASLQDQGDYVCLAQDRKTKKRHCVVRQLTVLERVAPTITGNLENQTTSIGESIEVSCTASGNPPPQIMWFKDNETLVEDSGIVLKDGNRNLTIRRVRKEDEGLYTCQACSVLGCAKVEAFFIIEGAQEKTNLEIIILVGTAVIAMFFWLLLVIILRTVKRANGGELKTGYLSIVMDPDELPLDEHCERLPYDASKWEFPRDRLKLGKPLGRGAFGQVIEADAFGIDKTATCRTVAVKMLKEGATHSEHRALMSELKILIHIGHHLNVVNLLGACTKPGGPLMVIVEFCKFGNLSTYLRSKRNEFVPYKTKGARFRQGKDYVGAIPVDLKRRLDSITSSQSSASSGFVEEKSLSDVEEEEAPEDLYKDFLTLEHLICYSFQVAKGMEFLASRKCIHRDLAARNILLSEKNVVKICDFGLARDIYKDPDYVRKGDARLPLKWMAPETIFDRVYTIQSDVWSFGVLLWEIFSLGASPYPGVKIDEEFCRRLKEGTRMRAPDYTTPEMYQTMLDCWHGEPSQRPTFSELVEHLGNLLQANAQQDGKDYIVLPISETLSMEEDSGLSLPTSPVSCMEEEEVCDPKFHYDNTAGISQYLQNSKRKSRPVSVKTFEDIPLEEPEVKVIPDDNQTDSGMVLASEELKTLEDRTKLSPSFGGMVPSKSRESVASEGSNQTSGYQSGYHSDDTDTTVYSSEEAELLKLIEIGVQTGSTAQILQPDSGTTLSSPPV", "assay": "KDR Kinase Assay (LanthaScreen TR-FRET enzymatic assay)", "format": "biochemical", "settings": "1.2 nM KDR, 92 μM ATP", "procedure": "Compounds were tested in a LanthaScreen™ time-resolved fluorescence energy transfer (TR-FRET) enzymatic assay from Invitrogen. The assay used human KDR kinase (Carna 08-191). Test compounds were prepared and diluted in DMSO in 3-fold serial dilutions to 50× of the final testing concentrations. The compounds were then further diluted to 5× by the kinase reaction buffer (50 mM HEPES pH 7.5, 0.0015% Brij-35). The enzymatic reaction for compound testing was performed in a white 384-well polypropylene plate (Corning 3573) with a total reaction volume of 25 μl containing 1.2 nM KDR, 3 μM peptide substrate FAM-P22 (GL Biochem 112393), and 92 μM ATP (Sigma A7699-1G). The assay started with loading RET diluted in kinase reaction buffer to wells, followed by addition of equal volume of 5× compounds for 15-min incubation at the room temperature for pre-treatment. The enzymatic reaction was initiated by addition of mixture of the substrate and ATP prepared in kinase reaction buffer. After incubation at 28° C. for one hour, 25 μl of stopper buffer (a mixture of 100 mM HEPES pH 7.5 buffer, 0.015% Brij-35, 50 mM EDTA and 0.2% of coating reagent 3 (Cliper Lifesciences)) and produce TR-FRET signals. After 30 minutes of incubation at room temperature, the plate was read in a Caliper with the following settings: Excitation 340 nm (30)/Emission1 495 nm (10)/Emission2 520 nm (25). The TR-FRET values were dimensionless numbers that were calculated as the ratio of the acceptor ([…]) signal to the donor (Terbium) signal. Percent of control was calculated as the percentage of compound-treated vs 1% DMSO vehicle-treated. The dose-response curves were generated and the IC50s were calculated by nonlinear sigmoid curve fitting using XLFit."}}}
{"molecule": "CCOc1cc(-c2ccc(N3C4CC5CC3CC(C(=O)Nc3ccc(OC)nc3)(C5)C4)nc2)c2c(C#N)cnn2c1", "note": "[Example 134, (1R3S,5s,7s)-2-(5-(3-cyano-6-ethoxypyrazolo[1,5-a]pyridin-4-yl)pyridin-2-yl)-N-(6-methoxypyridin-3-yl)-2-azaadamantane-5-carboxamide]", "values": [{"measurement": "IC50", "setting": "human RET kinase", "value": "≤ 10", "unit": "nM"}]}
{"molecule": "CC(=O)NC12CC3CC(C1)N(c1ccc(-c4cc(OCC(C)(C)O)cn5ncc(C#N)c45)cn1)C(C3)C2", "note": "[Example 130, N-((1R,3S,5s,7s)-2-(5-(3-cyano-6-(2-hydroxy-2-methylpropoxy)pyrazolo[1,5-a]pyridin-4-yl)pyridin-2-yl)-2-azaadamantan-5-yl)acetamide]", "values": [{"measurement": "IC50", "setting": "human RET kinase", "value": "≤ 10", "unit": "nM"}, {"measurement": "IC50", "setting": "human KDR kinase", "value": "> 100", "unit": "nM"}]}
{"molecule": "COc1ccc(C(=O)N[C@]2(C)C[C@H]3CN(c4ccc(-c5cc(-c6ccn(C)n6)cn6ncc(C#N)c56)cn4)C[C@H]3C2)cn1", "note": "[Example 122, N-((3aR,5s,6aS)-2-(5-(3-cyano-6-(1-methyl-1H-pyrazol-3-yl)pyrazolo[1,5-a]pyridin-4-yl)pyridin-2-yl)-5-methyloctahydrocyclopenta[c]pyrrol-5-yl)-6-methoxynicotinamide]", "values": [{"measurement": "IC50", "setting": "human RET kinase", "value": "≤ 10", "unit": "nM"}, {"measurement": "IC50", "setting": "human KDR kinase", "value": "10 to 50", "unit": "nM"}]}
{"molecule": "Cn1cc(-c2cc(-c3ccc(N4C[C@@H]5[C@@H](CNC(=O)c6c(F)cccc6Cl)[C@@H]5C4)nc3)c3c(C#N)cnn3c2)cn1", "note": "[Example 187, 2-chloro-N-(((1R,5S,6s)-3-(5-(3-cyano-6-(1-methyl-1H-pyrazol-4-yl)pyrazolo[1,5-a]pyridin-4-yl)pyridin-2-yl)-3-azabicyclo[3.1.0]hexan-6-yl)methyl)-6-fluorobenzamide]", "values": [{"measurement": "IC50", "setting": "human RET kinase", "value": "≤ 10", "unit": "nM"}, {"measurement": "IC50", "setting": "human KDR kinase", "value": "≤ 10", "unit": "nM"}]}
{"molecule": "COc1ccc(NC(=O)C23CC4CC(C2)N(c2cnc(-c5cc(-c6cnn(C)c6)cn6ncc(C#N)c56)cn2)C(C4)C3)cn1", "note": "[Example 114, (1R,3S,5s,7s)-2-(5-(3-cyano-6-(1-methyl-1H-pyrazol-4-yl)pyrazolo[1,5-a]pyridin-4-yl)pyrazin-2-yl)-N-(6-methoxypyridin-3-yl)-2-azaadamantane-5-carboxamide]", "values": [{"measurement": "IC50", "setting": "human RET kinase", "value": "≤ 10", "unit": "nM"}]}
{"molecule": "COc1ccc(NC(=O)[C@H]2[C@@H]3CN(c4ccc(-c5cc(OCC(C)(C)O)cn6ncc(C#N)c56)cn4)C[C@@H]32)cn1", "note": "[Example 175, (1R,5S,6r)-3-(5-(3-cyano-6-(2-hydroxy-2-methylpropoxy)pyrazolo[1,5-a]pyridin-4-yl)pyridin-2-yl)-N-(6-methoxypyridin-3-yl)-3-azabicyclo[3.1.0]hexane-6-carboxamide]", "values": [{"measurement": "IC50", "setting": "human RET kinase", "value": "≤ 10", "unit": "nM"}]}
